Experimental data as given in the NIST ThermoML archive (doi:10.1016/j.tca.2017.02.015).

Tests used:
[1] = molar heat capacity at constant pressure; details: Liquid, Flow calorimetry
[2] = molar heat capacity at constant pressure; xn = mol fraction of the nth substance listed; details: Liquid, Flow calorimetry

CCCCCCCCCC(=O)OC [methyl decanoate]
[1]
Details | molar heat capacity at constant pressure [J/K/mol]
313.71 K, 100 kPa | 383.9
313.82 K, 4070 kPa | 382.1
313.83 K, 8030 kPa | 380.5
313.99 K, 12010 kPa | 378.5
314.01 K, 16140 kPa | 376.6
324.79 K, 100 kPa | 387.6
324.79 K, 4070 kPa | 386
325.01 K, 8030 kPa | 384.4
325.06 K, 12010 kPa | 382.5
325.2 K, 16140 kPa | 379.3
334.12 K, 100 kPa | 393.2
334.33 K, 8030 kPa | 388.3
334.53 K, 4070 kPa | 390.3
334.6 K, 12010 kPa | 386.2
334.84 K, 16140 kPa | 384.2

CCCCCCCCCCCC(=O)OC [methyl dodecanoate]
[1]
Details | molar heat capacity at constant pressure [J/K/mol]
313.97 K, 100 kPa | 442.6
313.99 K, 4040 kPa | 441.6
314.06 K, 8070 kPa | 439.5
314.09 K, 12160 kPa | 438.3
314.14 K, 16180 kPa | 436.9
323.84 K, 12090 kPa | 444.8
323.88 K, 100 kPa | 449.5
323.93 K, 4070 kPa | 447.2
323.94 K, 16080 kPa | 443.3
324.01 K, 8060 kPa | 445.8
333.88 K, 100 kPa | 456.4
333.96 K, 4050 kPa | 453.6
334 K, 8050 kPa | 452.1
334.05 K, 12060 kPa | 450.5
334.11 K, 16170 kPa | 448

CCCCCCCCCC(=O)OC [methyl decanoate] + CCCCCCCCCCCC(=O)OC
[2], x2 = 0
Details | molar heat capacity at constant pressure [J/K/mol]
313.71 K, 100 kPa | 383.9
313.82 K, 4070 kPa | 382.1
313.83 K, 8030 kPa | 380.5
313.99 K, 12010 kPa | 378.5
314.01 K, 16140 kPa | 376.6
324.79 K, 100 kPa | 387.6
324.79 K, 4070 kPa | 386
325.01 K, 8030 kPa | 384.4
325.06 K, 12010 kPa | 382.5
325.2 K, 16140 kPa | 379.3
334.12 K, 100 kPa | 393.2
334.33 K, 8030 kPa | 388.3
334.53 K, 4070 kPa | 390.3
334.6 K, 12010 kPa | 386.2
334.84 K, 16140 kPa | 384.2

CCCCCCCCCCCC(=O)OC [methyl dodecanoate] + CCCCCCCCCC(=O)OC
[2]
Details | molar heat capacity at constant pressure [J/K/mol]
313.71 K, 100 kPa, x1 = 0.5001 | 414.9
313.82 K, 4060 kPa, x1 = 0.5001 | 413.3
313.83 K, 8100 kPa, x1 = 0.5001 | 412.3
313.97 K, 100 kPa, x1 = 1 | 442.6
313.99 K, 4040 kPa, x1 = 1 | 441.6
313.99 K, 12140 kPa, x1 = 0.5001 | 410.1
314.01 K, 100 kPa, x1 = 0.6999 | 426.4
314.01 K, 16150 kPa, x1 = 0.5001 | 408.9
314.06 K, 8070 kPa, x1 = 1 | 439.5
314.08 K, 4080 kPa, x1 = 0.6999 | 425.1
314.09 K, 12160 kPa, x1 = 1 | 438.3
314.14 K, 16180 kPa, x1 = 1 | 436.9
314.17 K, 12080 kPa, x1 = 0.6999 | 421.2
314.18 K, 8140 kPa, x1 = 0.6999 | 422.7
314.21 K, 16150 kPa, x1 = 0.6999 | 419.4
314.37 K, 100 kPa, x1 = 0.3001 | 403.7
314.53 K, 4090 kPa, x1 = 0.3001 | 402.2
314.71 K, 8010 kPa, x1 = 0.3001 | 400.6
314.95 K, 12020 kPa, x1 = 0.3001 | 397.7
315.06 K, 16080 kPa, x1 = 0.3001 | 395.6
323.53 K, 100 kPa, x1 = 0.3001 | 412
323.58 K, 4100 kPa, x1 = 0.3001 | 409.5
323.69 K, 8070 kPa, x1 = 0.3001 | 406.9
323.84 K, 12080 kPa, x1 = 0.3001 | 403.9
323.84 K, 12090 kPa, x1 = 1 | 444.8
323.88 K, 100 kPa, x1 = 1 | 449.5
323.93 K, 4070 kPa, x1 = 1 | 447.2
323.94 K, 16080 kPa, x1 = 1 | 443.3
324.01 K, 8060 kPa, x1 = 1 | 445.8
324.05 K, 100 kPa, x1 = 0.6999 | 435.5
324.08 K, 4120 kPa, x1 = 0.6999 | 433.4
324.13 K, 8050 kPa, x1 = 0.6999 | 431.3
324.19 K, 12080 kPa, x1 = 0.6999 | 428.2
324.24 K, 16120 kPa, x1 = 0.6999 | 426.4
324.39 K, 16190 kPa, x1 = 0.3001 | 400.5
324.79 K, 100 kPa, x1 = 0.5001 | 424.4
324.79 K, 4150 kPa, x1 = 0.5001 | 421.6
325.01 K, 8140 kPa, x1 = 0.5001 | 418.7
325.06 K, 12110 kPa, x1 = 0.5001 | 416.1
325.2 K, 16230 kPa, x1 = 0.5001 | 413.7
333.55 K, 100 kPa, x1 = 0.3001 | 418.3
333.71 K, 100 kPa, x1 = 0.6999 | 442.8
333.76 K, 4130 kPa, x1 = 0.3001 | 415.8
333.79 K, 8110 kPa, x1 = 0.3001 | 413.5
333.88 K, 100 kPa, x1 = 1 | 456.4
333.96 K, 4050 kPa, x1 = 1 | 453.6
333.97 K, 12160 kPa, x1 = 0.6999 | 434.7
333.98 K, 4150 kPa, x1 = 0.6999 | 440.9
334 K, 8050 kPa, x1 = 1 | 452.1
334.03 K, 12080 kPa, x1 = 0.3001 | 411.7
334.04 K, 8040 kPa, x1 = 0.6999 | 439
334.04 K, 16170 kPa, x1 = 0.6999 | 431.9
334.05 K, 12060 kPa, x1 = 1 | 450.5
334.11 K, 16170 kPa, x1 = 1 | 448
334.12 K, 100 kPa, x1 = 0.5001 | 431.7
334.21 K, 16110 kPa, x1 = 0.3001 | 408.4
334.33 K, 8140 kPa, x1 = 0.5001 | 425.5
334.53 K, 4120 kPa, x1 = 0.5001 | 428.8
334.6 K, 12200 kPa, x1 = 0.5001 | 423.1
334.84 K, 16030 kPa, x1 = 0.5001 | 420.7
